Experimental data taken from PubChem BioAssay AID2042 (NMMLSC, 2009).
Activity calls are given as the source filed them.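 The calls were made as follows: active = EC50 at most 30 µM plus a dose-response curve spanning at least 25% response; inactive = the rest.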

Target: GTPase HRas (Homo sapiens) (UniProt P01112)
Assay: activated Ras GTP binding inhibitors, SAR follow-up, biochemical, oxadiazole analogs, activated mutant, multiplex flow cytometry (AID 2042)
Conditions: GST-Ras beads, Bodipy-FL-GTP binding

Chain of GTPase HRas (Homo sapiens) (P01112 whole entry, looked up): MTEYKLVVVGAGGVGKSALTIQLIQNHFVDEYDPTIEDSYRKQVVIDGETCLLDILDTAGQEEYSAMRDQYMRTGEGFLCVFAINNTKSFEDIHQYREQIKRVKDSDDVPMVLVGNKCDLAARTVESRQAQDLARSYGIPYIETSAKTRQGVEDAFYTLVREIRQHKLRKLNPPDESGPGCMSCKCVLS

Row | Structure (SMILES) | EC50
1 | COc1ccc(-c2cc(CCC(=O)N3CCN(c4cc(C)ccc4C)CC3)[nH]n2)cc1 | > 30 µM (inactive)
2 | Cc1ccc(C)c(N2CCN(C(=O)CCc3nc(-c4cccc(F)c4)no3)CC2)c1 | > 30 µM (inactive)
3 | COc1ccc(-c2noc(CCC(=O)N3CCN(c4ccccc4OC)CC3)n2)cc1 | > 30 µM (inactive)
4 | COc1ccc(-c2noc(CCCCC(=O)N3CCN(c4cc(C)ccc4C)CC3)n2)cc1 | > 30 µM (inactive)
5 | COc1ccc(-c2noc(CCC(=O)N3CCC(c4cc(C)ccc4C)CC3)n2)cc1 | > 30 µM (inactive)
6 | COc1ccc(-c2noc(CCC(=O)N3CCN(c4ccccc4C)CC3)n2)cc1 | > 30 µM (inactive)
7 | COc1ccc(-c2noc(CCC(=O)N3CCN(c4cccc(Cl)c4)CC3)n2)cc1 | > 30 µM (inactive)
8 | COc1ccc(-c2noc(CCC(=O)N3CCN(c4ccccc4F)CC3)n2)cc1 | inactive
9 | COc1ccc(-c2noc(CCC(=O)N3CCN(c4ccc(Br)cc4)CC3)n2)cc1 | > 30 µM (inactive)
10 | COc1ccc(-c2cc(CCC(=O)N3CCN(c4cc(C)ccc4C)CC3)on2)cc1 | > 30 µM (inactive)
11 | Cc1ccc(C)c(N2CCN(C(=O)CCc3nc(-c4cccc(Br)c4)no3)CC2)c1 | > 30 µM (inactive)
12 | COc1ccc(-c2noc(CCCC(=O)N3CCN(c4cc(C)ccc4C)CC3)n2)cc1 | > 30 µM (inactive)
13 | COc1ccc(-c2noc(CCC(=O)N3CCN(c4ccccc4Br)CC3)n2)cc1 | > 30 µM (inactive)
14 | COc1ccc(-c2noc(CCC(=O)N3CCN(c4ccccc4)CC3)n2)cc1 | > 30 µM (inactive)
15 | Cc1ccc(C)c(N2CCN(C(=O)CCc3nc(-c4cccc(C(F)(F)F)c4)no3)CC2)c1 | > 30 µM (inactive)
16 | COc1ccc(-c2noc(CCC(=O)N3CCN(c4ccccc4Cl)CC3)n2)cc1 | > 30 µM (inactive)
17 | COc1ccc(-c2noc(CCC(=O)N3CCN(c4cccc(C)c4)CC3)n2)cc1 | > 30 µM (inactive)
18 | Cc1ccc(C)c(N2CCN(C(=O)CCc3nc(-c4ccc(Cl)cc4)no3)CC2)c1 | > 30 µM (inactive)
19 | COc1ccc(-c2noc(CCC(=O)N3CCN(c4ccc(C)cc4)CC3)n2)cc1 | > 30 µM (inactive)
20 | Cc1ccc(-c2noc(CCC(=O)N3CCN(c4cc(C)ccc4C)CC3)n2)cc1 | > 30 µM (inactive)
21 | COc1cccc(-c2noc(CCC(=O)N3CCN(c4cc(C)ccc4C)CC3)n2)c1 | inactive
22 | COc1ccc(-c2ccc(CCC(=O)N3CCN(c4cc(C)ccc4C)CC3)[nH]2)cc1 | > 30 µM (inactive)
23 | COc1ccc(-c2noc(CCC(=O)N3CCN(c4cccc(OC)c4)CC3)n2)cc1 | > 30 µM (inactive)
24 | COc1ccc(-c2noc(CCC(=O)N3CCN(c4ccc(C(F)(F)F)cc4)CC3)n2)cc1 | > 30 µM (inactive)
25 | COc1ccc(-c2noc(CCC(=O)N3CCN(c4cc(C)ccc4C)CC3)n2)cc1 | inactive
26 | Cc1ccc(C)c(N2CCN(C(=O)CCc3nc(-c4ccc(F)cc4)no3)CC2)c1 | > 30 µM (inactive)

Row | Structure (SMILES) | EC50
27 | Cc1ccc(C)c(N2CCN(C(=O)CCc3nc(-c4ccc(Br)cc4)no3)CC2)c1 | > 30 µM (inactive)
28 | COc1ccc(-c2noc(CCC(=O)N3CCN(c4cccc(C)c4C)CC3)n2)cc1 | > 30 µM (inactive)
29 | Cc1cccc(-c2noc(CCC(=O)N3CCN(c4cc(C)ccc4C)CC3)n2)c1 | > 30 µM (inactive)
30 | COc1ccc(-c2cccc(CCC(=O)N3CCN(c4cc(C)ccc4C)CC3)c2)cc1 | > 30 µM (inactive)
31 | COc1ccc(-c2ccc(CCC(=O)N3CCN(c4cc(C)ccc4C)CC3)s2)cc1 | > 30 µM (inactive)
32 | Cc1ccc(C)c(N2CCN(C(=O)CCc3nc(-c4cccc(Cl)c4)no3)CC2)c1 | > 30 µM (inactive)
33 | COc1ccc(-c2noc(CC(=O)N3CCN(c4cc(C)ccc4C)CC3)n2)cc1 | > 30 µM (inactive)
34 | COc1ccc(-c2ccc(CCC(=O)N3CCN(c4cc(C)ccc4C)CC3)o2)cc1 | > 30 µM (inactive)
35 | Cc1ccc(C)c(N2CCN(C(=O)CCc3nc(-c4ccccc4Cl)no3)CC2)c1 | > 30 µM (inactive)
36 | COc1ccc(-c2noc(CCC(=O)N3CCN(c4ccccc4C(F)(F)F)CC3)n2)cc1 | > 30 µM (inactive)
37 | COc1ccc(-c2noc(CCC(=O)N3CCN(c4cccc(F)c4)CC3)n2)cc1 | > 30 µM (inactive)
38 | COc1ccc(-c2noc(CCC(=O)N3CCN(c4ccc(Cl)cc4)CC3)n2)cc1 | > 30 µM (inactive)
39 | Cc1ccc(C)c(N2CCN(C(=O)CCc3nc(-c4ccccc4Br)no3)CC2)c1 | > 30 µM (inactive)
40 | Cc1ccc(C)c(N2CCN(C(=O)CCc3nc(-c4ccccc4F)no3)CC2)c1 | > 30 µM (inactive)
41 | COc1ccc(-c2noc(CCC(=O)N3CCN(c4ccc(F)cc4)CC3)n2)cc1 | > 30 µM (inactive)
42 | Cc1ccc(C)c(N2CCN(C(=O)CCc3nc(-c4ccccc4)no3)CC2)c1 | > 30 µM (inactive)
43 | COc1ccc(-c2noc(CCC(=O)N3CCN(c4cccc(Br)c4)CC3)n2)cc1 | > 30 µM (inactive)
44 | COc1ccc(-c2noc(CCC(=O)N3CCN(c4cccc(C(F)(F)F)c4)CC3)n2)cc1 | > 30 µM (inactive)
45 | Cc1ccc(C)c(N2CCN(C(=O)CCc3nc(-c4ccc(C(F)(F)F)cc4)no3)CC2)c1 | > 30 µM (inactive)
46 | Cc1ccc(C)c(N2CCN(C(=O)CCc3nc(-c4ccccc4C(F)(F)F)no3)CC2)c1 | > 30 µM (inactive)
47 | COc1ccc(-c2coc(CCC(=O)N3CCN(c4cc(C)ccc4C)CC3)n2)cc1 | > 30 µM (inactive)
48 | Cc1ccc(C)c(N2CCN(C(=O)CCc3nc(-c4ccccc4C)no3)CC2)c1 | > 30 µM (inactive)
49 | COc1ccccc1-c1noc(CCC(=O)N2CCN(c3cc(C)ccc3C)CC2)n1 | > 30 µM (inactive)
50 | Cc1ccc(C)c(N2CCN(C(=O)CCc3nc(-c4ccc(N(C)C)cc4)no3)CC2)c1 | > 30 µM (inactive)
51 | COc1ccc(-c2noc(CCC(=O)N3CCN(c4ccc(OC)cc4)CC3)n2)cc1 | > 30 µM (inactive)

Same assay, conditions: GST-Ras beads, Bodipy-FL-GTP binding, measured here: Ki calculated from EC50

Row | Structure (SMILES) | Ki
52 | COc1ccc(-c2noc(CCC(=O)N3CCN(c4ccccc4F)CC3)n2)cc1 | 0.06 µM
53 | COc1cccc(-c2noc(CCC(=O)N3CCN(c4cc(C)ccc4C)CC3)n2)c1 | 0.28 µM
54 | COc1ccc(-c2noc(CCC(=O)N3CCN(c4cc(C)ccc4C)CC3)n2)cc1 | 0.12 µM
